Experimental data as given in patent publication US6087401A, “Cyclopentenones, process for preparing the same, and the use thereof” (Takara Shuzo Co., Ltd., priority 1996, dated 2000).
In brackets after ≈: the same amount, converted by molar mass.

What was measured:
[1] = tested on: cancer cells such as HL-60, MOLT-3, A-549, WI-38VA13, Hep G2, HCT 116, SW 480, WiDr, AGS and myeloma cells; experiment: cell growth suppressing, anticancer and apoptosis-inducing action to cancer cells; type: cell-based, human
[2] = tested on: Escherichia coli HB101 (ATCC 33694); experiment: growth turbidity, microorganism (13); type: cell-based; settings: 8 h, control 222
From the text: (§1) They were testing microorganism (13): Escherichia coli HB101 (ATCC 33694); testing microorganism (14): Salmonella typhimurium LT-2 (ATCC 27106); testing microorganism (15): Pseudomonas aeruginosa (IFO 3080); testing microorganism (16): Staphylococcus aureus 3A (NCTC 8319); testing microorganism (17): Bacillus subtilis (IFO 3034); and testing microorganism (18): Streptococcus mutans (GS5; stored at National Institute of Health).
(§2) The testing microorganisms were subjected to a seed culture overnight in an L-broth (1% tryptone, 0.5% yeast extract and […]; pH 7.0). The seed culture (5 μl) was inoculated to a medium to which 25-200 μg/ml of cyclopentenone was added to 5 ml of L-both and also to a medium to which nothing was added and a shake incubation was conducted at 37° C. to measure the growth. At the initiation of the incubation and also at eight hours thereafter, turbidity of the culture was measured using a Fuji Digital Turbidimeter (sold from Fuji Kogyo KK; manufactured by Akiyama Denki Seisakusho) under the condition that the adjusted scale was 82.3 and the growth of the tested microorganism was measured from the value (growth turbidity) obtained by deducting the turbidity at the initiation of incubation from that after eight hours. Incidentally, in the case of the testing microorganism (18), a brain heart infusion was used instead of L-broth.

[3] = tested on: Streptococcus mutans (GS5); experiment: growth turbidity, microorganism (18); type: cell-based; settings: 8 h, control 140
From the text: as §1, §2

[4] = tested on: Lactobacillus fructivorans (IFO 13118); experiment: antibacterial activity to hiochi bacteria, microorganism A; type: cell-based; settings: five days; for Growth Turbidity (OD600): control 0.96
Description: The testing microorganism was subjected to a stationary incubation for five days in an SI medium (Japan Brewery Association) containing 10% of ethanol to give a seed microorganism. The seed microorganism (0.1%) was added to 100 ml of 10% ethanol-containing SI medium to which the cyclopentenone was added in an amount of 0, 25, 50, 75 or 100 μg/ml (in terms of final concentration), then a stationary incubation was conducted for five days and the turbidity was measured. In measuring the turbidity, the value of OD600 was measured using an absorbance meter. A value of OD600 of the medium to which no testing microorganism was inoculated was deducted from the above value and this (growth turbidity) was used for the growth of the tested microorganism.
The tested microorganisms were as follows. Thus, Lactobacillus fructivorans (IFO 13118) (testing microorganism A), Lactobacillus fructivorans (JCM 1198) (testing microorganism B) and Lactobacillus homohiochii (IFO 13120) (testing microorganism C) as true hiochi bacteria while Lactobacillus rhamnosus (IFO 3532) (testing microorganism D) was used as hiochi lactobacteria.

[5] = tested on: Vibrio parahaemolyticus 4387-61 and Vibrio parahaemolyticus T4144-1; experiment: antibacterial and bactericidal action to Vibrio; type: cell-based
Description: (1) Vibrio parahaemolyticus 4387-61 or Vibrio parahaemolyticus T4144-1 (both stored at National Institute of Hygienic Sciences) was inoculated to make 10^6 cells/ml to a trypto-soya bouillon medium (manufactured by Nissui) containing […], 3.13 or 1.56 μg/ml of the cyclopentenone and a stationary incubation was conducted at 37° C. for 24 hours.
The culture (50 μl) where no growth of the microorganism was noted was spread on 20 ml of a trypto-soya bouillon agar medium containing no cyclopentenone and incubation was conducted at 37° C. for 24 hours. The result was that, in any of the strains, no growth of microorganism was noted on the agar medium on which a fraction (to which 50 μg/ml or more cyclopentenone was added) was spread.

[6] = tested on: Aspergillus fumigatus TIMM 1776; experiment: antimicrobial activity to fungi; type: cell-based; settings: high concentrations

Compound: O=C1C=CC(O)C1O (centres unmarked) [the cyclopentenone, 4,5-dihydroxy-2-cyclopenten-1-one]
- apoptosis-inducing action to cancer cells [1]: apoptosis-inducing action
- cell growth suppressing action and anticancer action [1]: cell growth suppressing action and anticancer action
- Growth Turbidity ([2]; 25 μg/ml): 0
- Growth Turbidity ([2]; 50 μg/ml): 0
- Growth Turbidity ([2]; 100 μg/ml): 0
- Growth Turbidity ([2]; 200 μg/ml): 0
- Growth Turbidity ([3]; 25 μg/ml): 133
- Growth Turbidity ([3]; 50 μg/ml): 130
- Growth Turbidity ([3]; 100 μg/ml): 34
- Growth Turbidity ([3]; 200 μg/ml): 6
- Growth Turbidity (OD600) ([4]; 25 μg/ml): 0.17
- Growth Turbidity (OD600) ([4]; 50 μg/ml): 0.02
- Growth Turbidity (OD600) ([4]; 75 μg/ml): 0
- MIC ([4]; Fructilactobacillus fructivorans, IFO13118, 120 h, read-out: concentration completely inhibiting growth): 75 µg/mL (≈ 657 µM)
- MIC ([5]; 37° C., 24 hours, both strains, read-out: concentration showing antibacterial action (no growth)): 12.5 µg/mL (≈ 110 µM)
- MBC ([5]; 24 h, read-out: concentration showing bactericidal action): 50 µg/mL (≈ 438 µM)
- antimicrobial activity [6]: antimicrobial activity at high concentrations
